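96-well plates; 48 h exposure; 5 concentrations. Endpoints by linear interpolation between flanking doses. Not reached: highest tested concentration assigned. GI50: concentration for 50% inhibition of growth.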 Active and inactive are the calls of the source. Rule as the data show it: active = GI50 up to about 1.1 µM and inactive = higher.
Tests used:
Assay in all cases: DTP human tumour cell line panel, 48 h
[1] = test system: OVCAR-3
[2] = test system: PC-3
[3] = test system: EKVX
[4] = test system: SF-539
[5] = test system: ACHN
[6] = test system: NCI-H522
[7] = test system: OVCAR-8
[8] = test system: HCT-116
[9] = test system: CAKI-1
[10] = test system: HOP-62
[11] = test system: M14
[12] = test system: OVCAR-5
[13] = test system: RXF 393
[14] = test system: DU-145
[15] = test system: SNB-75
[16] = test system: OVCAR-4
[17] = test system: MDA-MB-435
[18] = test system: SNB-19
[19] = test system: SF-295
[20] = test system: BT-549

Compound | GI50 [1] | GI50 [2] | GI50 [3] | GI50 [4] | GI50 [5] | GI50 [6] | GI50 [7] | GI50 [8] | GI50 [9] | GI50 [10] | GI50 [11] | GI50 [12] | GI50 [13] | GI50 [14] | GI50 [15] | GI50 [16] | GI50 [17] | GI50 [18] | GI50 [19] | GI50 [20]
CC1CC(C)C2=NOS3=C2C1=NO3 (configuration not stated) | > 100 µM (inactive) | > 100 µM (inactive) | 40 µM (inactive) | > 100 µM (inactive) | > 100 µM (inactive) | > 100 µM (inactive) | > 100 µM (inactive) | > 100 µM (inactive) | > 100 µM (inactive) | > 100 µM (inactive) | > 100 µM (inactive) | > 100 µM (inactive) | > 100 µM (inactive) | > 100 µM (inactive) | 59.8 µM (inactive) | > 100 µM (inactive) | > 100 µM (inactive) | > 100 µM (inactive) | > 100 µM (inactive) | –
Nc1ccc2nc(-c3cccc(Cl)c3)cc(O)c2c1 | – | 2.47 µM (inactive) | 42.6 µM (inactive) | 2.11 µM (inactive) | 5.93 µM (inactive) | 2.34 µM (inactive) | 18 µM (inactive) | – | – | 5.87 µM (inactive) | 5.56 µM (inactive) | > 100 µM (inactive) | – | – | 2.15 µM (inactive) | – | 0.738 µM (active) | 5.83 µM (inactive) | – | 5.45 µM (inactive)
N#Cc1c(N)oc(-c2ccc([N+](=O)[O-])cc2)c1C#N | – | 22.5 µM (inactive) | 8.67 µM (inactive) | 19.8 µM (inactive) | 27.2 µM (inactive) | 21.4 µM (inactive) | 20.5 µM (inactive) | 29.2 µM (inactive) | 24.3 µM (inactive) | 24.5 µM (inactive) | 75.3 µM (inactive) | 69.8 µM (inactive) | 28.6 µM (inactive) | 23.6 µM (inactive) | 17.7 µM (inactive) | – | 47.4 µM (inactive) | 27.5 µM (inactive) | 19.2 µM (inactive) | –
CC(=O)O[C@H]1C(=O)[C@@]2(C)C(C(OC(=O)c3ccccc3)[C@]3(O)CC(OC(=O)C(O)C(NC(=O)c4ccc(C)cc4)c4ccccc4)C(C)=C1C3(C)C)[C@]1(OC(C)=O)CO[C@@H]1C[C@@H]2O (some centres not stated) | < 0.0025 µM (active) | – | 0.111 µM (active) | < 0.0025 µM (active) | 0.112 µM (active) | < 0.0025 µM (active) | 0.00426 µM (active) | < 0.0025 µM (active) | 0.224 µM (active) | 0.00986 µM (active) | < 0.0025 µM (active) | 0.00743 µM (active) | 0.00628 µM (active) | – | 0.0045 µM (active) | 3.2 µM (inactive) | – | 0.00771 µM (active) | 0.0228 µM (active) | –
CN(C)c1ccc(/C=N/C23CC4CC(CC(C4)C2)C3)cc1 | > 100 µM (inactive) | – | > 100 µM (inactive) | > 100 µM (inactive) | > 100 µM (inactive) | > 100 µM (inactive) | > 100 µM (inactive) | > 100 µM (inactive) | > 100 µM (inactive) | > 100 µM (inactive) | > 100 µM (inactive) | > 100 µM (inactive) | > 100 µM (inactive) | – | > 10 µM (inactive) | > 100 µM (inactive) | – | > 100 µM (inactive) | > 100 µM (inactive) | –
Cc1ccccc1-n1c(=S)[nH]c2c(sc(=O)n2-c2ccccc2C)c1=O | > 100 µM (inactive) | – | > 100 µM (inactive) | > 100 µM (inactive) | > 100 µM (inactive) | > 100 µM (inactive) | > 100 µM (inactive) | > 100 µM (inactive) | > 100 µM (inactive) | > 100 µM (inactive) | > 100 µM (inactive) | > 100 µM (inactive) | > 100 µM (inactive) | – | > 100 µM (inactive) | > 100 µM (inactive) | – | > 100 µM (inactive) | > 100 µM (inactive) | –
CCOP(=O)(C=C=C1CCC2[C@@H]3CCc4cc(OC)ccc4C3CC[C@]12C)OCC (some centres not stated) | 10.2 µM (inactive) | 3.92 µM (inactive) | 10 µM (inactive) | 14.9 µM (inactive) | 10.3 µM (inactive) | 4.16 µM (inactive) | 11 µM (inactive) | 5.22 µM (inactive) | 12.9 µM (inactive) | 15.3 µM (inactive) | 11.6 µM (inactive) | 17 µM (inactive) | 1.98 µM (inactive) | 14 µM (inactive) | 12.7 µM (inactive) | 6.24 µM (inactive) | 12.4 µM (inactive) | 13.6 µM (inactive) | 5.6 µM (inactive) | –
CN1C(c2ccccc2)CC(O)CC1c1ccccc1 (configuration not stated) | > 100 µM (inactive) | – | > 100 µM (inactive) | > 100 µM (inactive) | > 100 µM (inactive) | > 100 µM (inactive) | > 100 µM (inactive) | > 100 µM (inactive) | > 100 µM (inactive) | > 100 µM (inactive) | > 100 µM (inactive) | > 100 µM (inactive) | > 100 µM (inactive) | – | > 100 µM (inactive) | > 100 µM (inactive) | – | > 100 µM (inactive) | > 100 µM (inactive) | –

Source: ChEMBL document CHEMBL1201862, “PubChem BioAssay data set” (2004)
